Earlier results in patent US8257686B2, “Compositions and methods relating to prevention of chemotherapy-induced alopecia” (HSF Pharmaceuticals S.A., priority 2000, dated 2012).

Test system: chemotherapy-induced hair loss
Details: review Dorr 1998; Sredni et al. 1996

Compound | prevention of chemotherapy-induced hair loss
C=C1/C(=C\C=C2/CCC[C@]3(C)[C@@H]([C@H](C)CCCC(C)(C)O)CC[C@@H]23)C[C@@H](O)C[C@@H]1O [1,25-dihydroxyvitamin D3] | showed a marked sex preference
Cl[TeH]1(Cl)(Cl)OCCO1 [AS101, ammonium trichloro (dioxy-ethylene-0,0′) tellurate] | More promising results
Cc1c(C)c2c(c(C)c1O)CC[C@@](C)(CCC[C@H](C)CCC[C@H](C)CCCC(C)C)O2 [alpha-tocopherol] | failed
C=C1/C(=C\C=C2/CCC[C@]3(C)[C@@H]([C@H](C)CCCC(C)(C)O)CC[C@@H]23)C[C@@H](O)C[C@@H]1O [calcitriol] | failed
